The source of these data is article PMC4048319, “Design and Synthesis of High Affinity Inhibitors of Plasmodium falciparum and Plasmodium vivax N-Myristoyltransferases Directed by Ligand Efficiency Dependent Lipophilicity (LELP)” (Journal of Medicinal Chemistry, 2014).

The term Ki denotes a dissociation constant, usually derived from enzyme kinetics or from competition with a known ligand. Read a low Ki as tighter binding. One may read the EC50 as the midpoint of the concentration-response curve.

Assay [1] has as its target T1, PfNMT (Plasmodium falciparum, UniProt Q9U419).
T1 sequence (Q9U419 1-410): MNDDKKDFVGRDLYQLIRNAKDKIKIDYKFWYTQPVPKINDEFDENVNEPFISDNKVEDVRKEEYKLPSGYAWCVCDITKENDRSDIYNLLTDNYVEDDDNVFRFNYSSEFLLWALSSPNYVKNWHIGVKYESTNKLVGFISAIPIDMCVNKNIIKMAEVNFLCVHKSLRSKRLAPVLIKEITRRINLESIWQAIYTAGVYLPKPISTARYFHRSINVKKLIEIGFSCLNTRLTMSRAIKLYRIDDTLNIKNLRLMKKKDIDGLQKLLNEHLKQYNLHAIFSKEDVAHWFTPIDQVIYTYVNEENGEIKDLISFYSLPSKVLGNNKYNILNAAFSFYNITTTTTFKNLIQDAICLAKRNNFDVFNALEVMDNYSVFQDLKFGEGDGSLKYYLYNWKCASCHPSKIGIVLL
The assay is described as follows: NMT enzyme inhibition, CPM fluorescence assay (PfNMT). It is filed as biochemical. The procedure:
(§1) All IC50 determinations were carried out using a 7-diethylamino-3-(4′-maleimidylphenyl)-4-methylcoumarin (CPM) fluorescence assay, as described previously for HsNMT1,[45] PvNMT,[46] and PfNMT.[21]
(§2) IC50 values are the mean value of two or more determinations, and standard deviation is within 20% of the IC50 unless otherwise specified. Data were elaborated using Microsoft Office Excel 2010, and IC50 values were determined using GraFit 7.0 (Erithacus Software Ltd., U.K.) by nonlinear regression fitting, which were then quoted as Ki as defined below.
(§3) The Michaelis constant (Km) was 3.64 μM and the substrate concentration was 4.00 μM, resulting in a Ki of 0.008 μM. Km values were calculated as described previously.[45]

For another assay, the target named is T2, PvNMT (Plasmodium vivax, UniProt A5K1A2).
T2 sequence (A5K1A2 1-410): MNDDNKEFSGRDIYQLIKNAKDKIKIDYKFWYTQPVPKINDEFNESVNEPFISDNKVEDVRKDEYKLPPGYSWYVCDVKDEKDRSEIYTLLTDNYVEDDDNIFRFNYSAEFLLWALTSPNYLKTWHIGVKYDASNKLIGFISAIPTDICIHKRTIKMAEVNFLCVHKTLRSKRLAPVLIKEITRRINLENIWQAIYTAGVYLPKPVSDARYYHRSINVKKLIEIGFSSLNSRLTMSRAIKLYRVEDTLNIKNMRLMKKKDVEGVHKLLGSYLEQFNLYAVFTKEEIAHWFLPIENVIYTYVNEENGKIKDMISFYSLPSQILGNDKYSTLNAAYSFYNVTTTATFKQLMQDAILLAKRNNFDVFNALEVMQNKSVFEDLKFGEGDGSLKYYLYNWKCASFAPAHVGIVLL
The assay is described as follows: NMT enzyme inhibition, CPM fluorescence assay (PvNMT). Type of assay: biochemical. The procedure: as §1, §2, §3

Assay [2] deals with Plasmodium falciparum 3D7. The assay can be described thus: Plasmodium falciparum Sybr Green viability assay (3D7). Conditions: blood stage, Sybr Green fluorometric assay, 96 h, read-out: Pf 3D7 EC50. Type of assay: cell-based. The procedure: Synchronous Plasmodium falciparum 3D7 late stage trophozoites at 33–36 h were used. […] Red blood cells used for the assay were centrifuged to remove the buffy coat and washed twice in Roswell Park Memorial Institute (RPMI) medium 1640 so that no white blood cells were present. The culture medium contained RPMI 1640 with 5 g/L Albumax, 0.025 g/L gentamycin, and 0.292 g/L L-glutamine. Sterile 96-well black tissue culture plates (Costar) were used routinely for every assay. […] Two sets of control were used in duplicate wells, one set with no added drugs (positive control) and one with uninfected red blood cells (negative control). […] After 48 h supernatants were taken from each well and replaced with fresh drug and incubated for a further 48 h in the same manner. At the end of the 96 h incubation, 25 μL of SYBR Green I dye (SYBR Green I nucleic acid gel stain 10000×, in DMSO from Invitrogen) in lysis buffer (1 μL dye to 1 mL of lysis buffer) was added to each well and stored overnight at −20 °C. […] Plates were warmed to room temperature, and fluorescence intensity was measured with a FLUOstar Omega microplate fluorescence reader (BMG Labtech). Values were expressed in relative fluorescence units. […] Fluorescence intensity unit was converted to percentage (%) of growth as follows: [drawing 2]

In assay [3] the target is T1, PfNMT. The assay is described as follows: LELP (cLogP/LE, PfNMT LE).

With `COc1cccc(COC(=O)c2sc3ccccc3c2OC2CCNCC2)c1` [compound 1], the Ki on PfNMT [1] is 832 nM; at PvNMT, 84 nM. In assay [2], the EC50 turned out to be 2000 nM. At PfNMT [3], the LELP is recorded as 13.5.
